# Activity calls are given as the source filed them. No rule for the calls is given here.
# Test system: CCRIS mutagenicity, Ames/micronucleus/aberration tests
# Test: CCRIS mutagenicity studies
# [1] = Test System: AMES SALMONELLA TYPHIMURIUM, Strain/Indicator: TA98, Metabolic Activation: NONE, Method: PREINCUBATION
# [2] = Test System: AMES SALMONELLA TYPHIMURIUM, Strain/Indicator: TA98, Metabolic Activation: RAT, LIVER, S-9, PCB, Method: PREINCUBATION
# [3] = Test System: AMES SALMONELLA TYPHIMURIUM, Strain/Indicator: TA100, Metabolic Activation: NONE, Method: PREINCUBATION
# [4] = Test System: AMES SALMONELLA TYPHIMURIUM, Strain/Indicator: TA100, Metabolic Activation: RAT, LIVER, S-9, PCB, Method: PREINCUBATION
# [5] = Test System: AMES SALMONELLA TYPHIMURIUM, Strain/Indicator: TA98, Metabolic Activation: NONE, Method: STANDARD PLATE
# [6] = Test System: AMES SALMONELLA TYPHIMURIUM, Strain/Indicator: TA100, Metabolic Activation: NONE, Method: STANDARD PLATE
structure (smiles),measurement,setting,value
CN(C)CCCN,mutagenic call,"Test System: AMES SALMONELLA TYPHIMURIUM, Strain/Indicator: TA98, Metabolic Activation: HAMSTER, LIVER, S-9, AROCLOR 1254 (10%), Method: PREINCUBATION",inactive; negative
same,mutagenic call,[1],inactive; negative
same,mutagenic call,"Test System: AMES SALMONELLA TYPHIMURIUM, Strain/Indicator: TA98, Metabolic Activation: RAT, LIVER, S-9, AROCLOR 1254 (10%), Method: PREINCUBATION",inactive; negative
same,mutagenic call,[2],inactive; negative
same,mutagenic call,"Test System: AMES SALMONELLA TYPHIMURIUM, Strain/Indicator: TA100, Metabolic Activation: HAMSTER, LIVER, S-9, AROCLOR 1254 (10%), Method: PREINCUBATION",inactive; negative
same,mutagenic call,[3],inactive; negative
same,mutagenic call,"Test System: AMES SALMONELLA TYPHIMURIUM, Strain/Indicator: TA100, Metabolic Activation: RAT, LIVER, S-9, AROCLOR 1254 (10%), Method: PREINCUBATION",inactive; negative
same,mutagenic call,[4],inactive; negative
same,mutagenic call,"Test System: AMES SALMONELLA TYPHIMURIUM, Strain/Indicator: TA1535, Metabolic Activation: HAMSTER, LIVER, S-9, AROCLOR 1254 (10%), Method: PREINCUBATION",inactive; negative
same,mutagenic call,"Test System: AMES SALMONELLA TYPHIMURIUM, Strain/Indicator: TA1535, Metabolic Activation: NONE, Method: PREINCUBATION",inactive; negative
same,mutagenic call,"Test System: AMES SALMONELLA TYPHIMURIUM, Strain/Indicator: TA1535, Metabolic Activation: RAT, LIVER, S-9, AROCLOR 1254 (10%), Method: PREINCUBATION",inactive; negative
same,mutagenic call,"Test System: AMES SALMONELLA TYPHIMURIUM, Strain/Indicator: TA1537, Metabolic Activation: HAMSTER, LIVER, S-9, AROCLOR 1254 (10%), Method: PREINCUBATION",inactive; negative
same,mutagenic call,"Test System: AMES SALMONELLA TYPHIMURIUM, Strain/Indicator: TA1537, Metabolic Activation: NONE, Method: PREINCUBATION",inactive; negative
same,mutagenic call,"Test System: AMES SALMONELLA TYPHIMURIUM, Strain/Indicator: TA1537, Metabolic Activation: RAT, LIVER, S-9, AROCLOR 1254 (10%), Method: PREINCUBATION",inactive; negative
COc1ccc2[nH]cc(CCNC(C)=O)c2c1,mutagenic call,"Test System: AMES SALMONELLA TYPHIMURIUM, Strain/Indicator: TA97, Metabolic Activation: NONE, Method: STANDARD PLATE",inactive; negative
same,mutagenic call,"Test System: AMES SALMONELLA TYPHIMURIUM, Strain/Indicator: TA97, Metabolic Activation: RAT, LIVER, S-9, AROCLOR 1254, Method: STANDARD PLATE",inactive; negative
same,mutagenic call,"Test System: AMES SALMONELLA TYPHIMURIUM, Strain/Indicator: TA97A, Metabolic Activation: NONE, Method: STANDARD PLATE",inactive; negative
same,mutagenic call,"Test System: AMES SALMONELLA TYPHIMURIUM, Strain/Indicator: TA97A, Metabolic Activation: RAT LIVER S-9, PHENOBARBITOL/BETA-NAPHTHOFLAVONE, Method: STANDARD PLATE",inactive; negative
same,mutagenic call,[5],inactive; negative
same,mutagenic call,"Test System: AMES SALMONELLA TYPHIMURIUM, Strain/Indicator: TA98, Metabolic Activation: RAT LIVER S-9, PHENOBARBITOL/BETA-NAPHTHOFLAVONE, Method: STANDARD PLATE",inactive; negative
same,mutagenic call,"Test System: AMES SALMONELLA TYPHIMURIUM, Strain/Indicator: TA98, Metabolic Activation: RAT, LIVER, S-9, AROCLOR 1254, Method: STANDARD PLATE",inactive; negative
same,mutagenic call,[3],inactive; negative
same,mutagenic call,[6],inactive; negative
same,mutagenic call,"Test System: AMES SALMONELLA TYPHIMURIUM, Strain/Indicator: TA100, Metabolic Activation: RAT LIVER S-9, PHENOBARBITOL/BETA-NAPHTHOFLAVONE, Method: PREINCUBATION",inactive; negative
same,mutagenic call,"Test System: AMES SALMONELLA TYPHIMURIUM, Strain/Indicator: TA100, Metabolic Activation: RAT LIVER S-9, PHENOBARBITOL/BETA-NAPHTHOFLAVONE, Method: STANDARD PLATE",inactive; negative
same,mutagenic call,"Test System: AMES SALMONELLA TYPHIMURIUM, Strain/Indicator: TA100, Metabolic Activation: RAT, LIVER, S-9, AROCLOR 1254, Method: STANDARD PLATE",inactive; negative
same,mutagenic call,"Test System: AMES SALMONELLA TYPHIMURIUM, Strain/Indicator: TA1535, Metabolic Activation: NONE, Method: STANDARD PLATE",inactive; negative
same,mutagenic call,"Test System: AMES SALMONELLA TYPHIMURIUM, Strain/Indicator: TA1535, Metabolic Activation: RAT LIVER S-9, PHENOBARBITOL/BETA-NAPHTHOFLAVONE, Method: STANDARD PLATE",inactive; negative
same,mutagenic call,"Test System: E.COLI, Strain/Indicator: WP2/UVRA, Metabolic Activation: NONE, Method: STANDARD PLATE",inactive; negative
same,mutagenic call,"Test System: E.COLI, Strain/Indicator: WP2/UVRA, Metabolic Activation: RAT LIVER S-9, PHENOBARBITOL/BETA-NAPHTHOFLAVONE, Method: STANDARD PLATE",inactive; negative
O=[N+]([O-])c1ccc(-c2nc(N(CCO)CCO)c3ccccc3n2)s1,mutagenic call,[5],active; positive
same,mutagenic call,[6],active; positive
c1cc2cnncc2cn1,mutagenic call,[1],inactive; negative
same,mutagenic call,[2],inactive; negative
same,mutagenic call,[3],inactive; negative
same,mutagenic call,[4],inactive; negative
Nc1cccc2ncccc12,mutagenic call,[1],inactive; negative
same,mutagenic call,"Test System: AMES SALMONELLA TYPHIMURIUM, Strain/Indicator: TA98, Metabolic Activation: RAT, LIVER, S-9, KANECHLOR 500 OR PHENOBARBITAL AND BETA-NAPHTHOFLAVONE, Method: PREINCUBATION",active; positive
same,mutagenic call,[3],inactive; negative
same,mutagenic call,"Test System: AMES SALMONELLA TYPHIMURIUM, Strain/Indicator: TA100, Metabolic Activation: RAT, LIVER, S-9, KANECHLOR 500 OR PHENOBARBITAL AND BETA-NAPHTHOFLAVONE, Method: PREINCUBATION",active; positive
same,mutagenic call,"Test System: AMES SALMONELLA TYPHIMURIUM, Strain/Indicator: TA100, Metabolic Activation: RAT, LIVER, S-9, PHENOBARBITAL AND 5,6-BENZOFLAVONE, Method: PREINCUBATION",active; positive
C[As+](C)(C)CC(=O)[O-],mutagenic call,"Test System: AMES SALMONELLA TYPHIMURIUM, Strain/Indicator: TA97, Metabolic Activation: NONE",inactive; negative
same,mutagenic call,"Test System: AMES SALMONELLA TYPHIMURIUM, Strain/Indicator: TA97, Metabolic Activation: RAT, GUT-FLORA EXTRACT",inactive; negative
same,mutagenic call,"Test System: AMES SALMONELLA TYPHIMURIUM, Strain/Indicator: TA97, Metabolic Activation: RAT, LIVER, S-9, AROCLOR 1254",inactive; negative
same,mutagenic call,"Test System: AMES SALMONELLA TYPHIMURIUM, Strain/Indicator: TA98, Metabolic Activation: NONE",inactive; negative
same,mutagenic call,"Test System: AMES SALMONELLA TYPHIMURIUM, Strain/Indicator: TA98, Metabolic Activation: RAT, GUT-FLORA EXTRACT",inactive; negative
same,mutagenic call,"Test System: AMES SALMONELLA TYPHIMURIUM, Strain/Indicator: TA98, Metabolic Activation: RAT, LIVER, S-9, AROCLOR 1254",inactive; negative
same,mutagenic call,"Test System: AMES SALMONELLA TYPHIMURIUM, Strain/Indicator: TA100, Metabolic Activation: NONE",inactive; negative
same,mutagenic call,"Test System: AMES SALMONELLA TYPHIMURIUM, Strain/Indicator: TA100, Metabolic Activation: RAT, GUT-FLORA EXTRACT",inactive; negative
same,mutagenic call,"Test System: AMES SALMONELLA TYPHIMURIUM, Strain/Indicator: TA100, Metabolic Activation: RAT, LIVER, S-9, AROCLOR 1254",inactive; negative
same,mutagenic call,"Test System: CHINESE HAMSTER V-79, Strain/Indicator: V-79/6-THIOGUANINE (HGPRT), Metabolic Activation: NONE, Method: SUSPENSION/PLATE",inactive; negative
same,mutagenic call,"Test System: CHINESE HAMSTER V-79, Strain/Indicator: V-79/6-THIOGUANINE (HGPRT), Metabolic Activation: RAT, LIVER, S-9, AROCLOR 1254, Method: SUSPENSION/PLATE",inactive; negative
same,mutagenic call,"Test System: Mouse lymphoma, Strain/Indicator: L5178Y (TK+/TK-), Metabolic Activation: None, Method: Microwell",inactive; negative

# From PubChem BioAssay AID1259407 (Chemical Carcinogenesis Research Information System (CCRIS), 2018)
